Experimental data: ChEMBL document CHEMBL5244229, “Thiazole-containing compounds as therapeutic targets for cancer therapy” (Eur J Med Chem, 2020)

What was measured:
HeLa = test: Cytotoxicity against human HeLa cells assessed as reduction in cell viability measured after 48 hrs by MTS assay; type: functional, cell-based
K562 [1] = test: Cytotoxicity against human K562 cells assessed as reduction in cell viability measured after 48 hrs by MTS assay; type: functional, cell-based; conditions: K562, 48 h
HEK293 = test: Antiproliferative activity against human HEK293 cells; type: functional
A549 [2] = test: Antiproliferative activity against human A549 cells; type: functional, cell-based
HCT-116 [3] = test: Antiproliferative activity against human HCT-116 cells assessed as reduction in cell viability; type: functional, cell-based
[4] = test system: Panel NCI-60 (60 carcinoma cell lines); test: Antitumor activity against human Panel NCI-60 (60 carcinoma cell lines) cells; type: functional
HepG2 [5] = test: Cytotoxicity against human HepG2 cells assessed as reduction in cell viability measured after 48 hrs by MTS assay; type: functional, cell-based; conditions: HepG2, 48 h
HCT-116 [6] = test: Anticancer activity against human HCT-116 cells; type: functional, cell-based
HepG2 [7] = test: Anticancer activity against human HepG2 cells; type: functional, cell-based
K562 [8] = test: Anticancer activity against human K562 cells; type: functional, cell-based
SMMC-7721 = test: Cytotoxicity against human SMMC-7721 cells; type: functional, cell-based
[9] = test system: Panel NCI-60 (60 carcinoma cell lines); test: Antiproliferative activity against human Panel NCI-60 (60 carcinoma cell lines) assessed as cell growth inhibition; type: functional
NCI-H460 [10] = test: Antitumor activity against human NCI-H460 cells; type: functional, cell-based
HepG2 [11] = test: Antitumor activity against human HepG2 cells; type: functional, cell-based
[12] = molecular target: Vascular endothelial growth factor receptor 2 (Homo sapiens) (UniProt P35968); test: Inhibition of VEGFR2 (unknown origin) at 20 uM using 5-FAM-KKKKEEIYFFF-CONH2 as substrate incubated for 1 hr in presence of ATP by kinase glo-assay relative to control
Sequence of Vascular endothelial growth factor receptor 2 (Homo sapiens) (P35968 whole entry): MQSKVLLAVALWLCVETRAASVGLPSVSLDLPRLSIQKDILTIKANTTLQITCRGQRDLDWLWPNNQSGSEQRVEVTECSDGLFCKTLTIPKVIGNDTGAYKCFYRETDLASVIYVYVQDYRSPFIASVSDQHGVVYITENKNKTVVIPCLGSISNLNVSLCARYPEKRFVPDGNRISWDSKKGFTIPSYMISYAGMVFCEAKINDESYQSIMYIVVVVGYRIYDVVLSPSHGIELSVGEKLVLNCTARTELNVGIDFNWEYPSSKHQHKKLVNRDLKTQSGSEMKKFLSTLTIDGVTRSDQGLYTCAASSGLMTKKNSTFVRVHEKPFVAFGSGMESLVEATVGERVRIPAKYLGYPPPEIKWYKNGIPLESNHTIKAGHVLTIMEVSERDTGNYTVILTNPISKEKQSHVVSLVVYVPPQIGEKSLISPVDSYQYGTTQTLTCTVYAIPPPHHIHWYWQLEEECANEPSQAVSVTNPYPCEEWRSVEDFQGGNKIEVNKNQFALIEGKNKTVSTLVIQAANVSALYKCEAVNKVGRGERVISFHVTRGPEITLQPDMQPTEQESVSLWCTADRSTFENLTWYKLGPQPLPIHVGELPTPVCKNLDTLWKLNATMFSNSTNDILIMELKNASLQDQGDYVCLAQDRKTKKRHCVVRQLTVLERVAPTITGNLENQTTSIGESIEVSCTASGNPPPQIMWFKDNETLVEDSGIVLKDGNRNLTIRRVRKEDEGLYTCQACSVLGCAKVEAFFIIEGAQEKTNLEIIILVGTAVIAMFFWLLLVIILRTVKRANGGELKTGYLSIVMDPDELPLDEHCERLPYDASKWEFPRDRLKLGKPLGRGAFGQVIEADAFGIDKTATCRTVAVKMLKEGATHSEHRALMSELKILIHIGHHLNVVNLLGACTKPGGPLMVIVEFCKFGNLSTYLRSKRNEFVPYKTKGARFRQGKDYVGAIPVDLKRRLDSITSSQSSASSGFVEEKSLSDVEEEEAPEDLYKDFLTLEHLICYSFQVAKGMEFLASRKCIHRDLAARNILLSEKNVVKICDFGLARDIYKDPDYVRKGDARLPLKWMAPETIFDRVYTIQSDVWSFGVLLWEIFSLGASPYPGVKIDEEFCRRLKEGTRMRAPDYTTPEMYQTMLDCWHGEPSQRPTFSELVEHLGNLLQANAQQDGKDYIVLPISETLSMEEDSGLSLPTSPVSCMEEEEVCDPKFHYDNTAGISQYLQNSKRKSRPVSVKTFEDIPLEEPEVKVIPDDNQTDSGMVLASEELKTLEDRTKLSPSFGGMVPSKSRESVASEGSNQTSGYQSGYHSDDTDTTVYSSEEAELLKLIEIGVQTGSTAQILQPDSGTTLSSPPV

MCF7 [13] = test: Cytotoxicity against human MCF7 cells; type: functional, cell-based
HepG2 [14] = test: Cytotoxicity against human HepG2 cells; type: functional, cell-based
[15] = Cytotoxicity against human SNU-216 cells; type: functional, cell-based
MKN-74 = test: Cytotoxicity against human MKN-74 cells; type: functional, cell-based
SK-HEP1 = test: Cytotoxicity against human SK-HEP1 cells; type: functional, cell-based
AGS = test: Cytotoxicity against human AGS cells; type: functional, cell-based
SNU-638 = test: Cytotoxicity against human SNU-638 cells; type: functional, cell-based
Hep 3B2 = test: Cytotoxicity against human Hep3B cells; type: functional, cell-based
MDA-MB-231 = test: Antiproliferative activity against human MDA-MB-231 cells assessed as reduction in cell viability incubated for 2 days by MTT assay; type: functional, cell-based; conditions: MDA-MB-231, 48 h
Jurkat = test: Antiproliferative activity against human Jurkat cells assessed as reduction in cell viability incubated for 2 days by MTT assay; type: functional, cell-based; conditions: 48 h
MCF7 [16] = test: Antitumor activity against human MCF7 cells; type: functional, cell-based
NCI-H460 [17] = test: Cytotoxicity against human NCI-H460 cells assessed as reduction in cell viability incubated for 48 hrs by MTT assay; type: functional
MCF7 [18] = test: Cytotoxicity against human MCF7 cells assessed as reduction in cell viability incubated for 48 hrs by MTT assay; type: functional
A549 [19] = test: Anticancer activity against human A549 cells at 5 microg/ml relative to control; type: functional; conditions: dose 5 µg/ml
MCF7 [20] = test: Anticancer activity against human MCF7 cells; type: functional, cell-based
A549 [21] = test: Anticancer activity against human A549 cells; type: functional, cell-based
PC-3 = test: Anticancer activity against human PC-3 cells; type: functional, cell-based
SF-268 [22] = test: Antitumor activity against human SF-268 cells; type: functional
NCI-H460 [23] = test: Cytotoxicity against human NCI-H460 cells assessed as reduction in cell viability by MTS assay; type: functional
MCF7 [24] = test: Cytotoxicity against human MCF7 cells assessed as reduction in cell viability by MTS assay; type: functional
SF-268 [25] = test: Cytotoxicity against human SF-268 cells assessed as reduction in cell viability by MTS assay; type: functional

Compound `Cc1cccc(N(c2cccc(Cl)c2)c2c3ccccc3nc3scnc23)c1` has an IC50 (HeLa) of 5690 nM and an IC50 (K562 [1]) of 5690 nM.

For `CCCCCCCC(=O)SCC/C=C/[C@@H]1CC(=O)NCc2nc(cs2)C2=N[C@@](C)(CS2)C(=O)N[C@@H](C(C)C)C(=O)O1` [LARGAZOLE], the GI50 (HEK293) was > 100000 nM, the GI50 (A549 [2]) was 1460 nM and the IC50 (HCT-116 [3]) was 390 nM.

In the case of `Clc1cccc(Nc2c3ccccc3nc3sc(NCCN4CCCCC4)nc23)c1`, the IC50 (HeLa) is reported as 5690 nM and the IC50 (K562 [1]) is reported as 5690 nM.

For `Clc1nccc2c(-c3csc(-c4c[nH]c5ccc(Br)cc45)n3)c[nH]c12`, the GI50 [4] was 930 nM.

Work on `Cc1nc(N2N=C(c3cccs3)CC2c2ccc(C3CC(c4cccs4)=NN3c3nc(C)c(/N=N/c4ccc([N+](=O)[O-])cc4)s3)cc2)sc1/N=N/c1ccc([N+](=O)[O-])cc1` (configuration not stated) yielded an IC50 (HepG2 [5]) of 1370 nM, an IC50 (HCT-116 [6]) of 1370 nM and an IC50 (HepG2 [7]) of 150 nM. It also gave an IC50 (K562 [8]) of 20 nM and an IC50 (SMMC-7721) of 3000 nM.

`Cn1cc(-c2csc(-c3cn(C)c4ncccc34)n2)c2ccccc21` showed a GI50 [9] of 30 nM.

Compound `CCn1c(=O)/c(=C2\Sc3ccccc3N2C)s/c1=C\c1cccc[n+]1CC` has an IC50 (NCI-H460 [10]) of 1300 nM.

`CCOC(=O)c1nn(-c2ccc(Cl)cc2Cl)/c(=N/NC(=O)c2sc(-c3ccccc3)nc2C)s1` gave an IC50 (HepG2 [11]) of 820 nM.

Compound `O=C(Cc1csc2nc(-c3ccccc3)cn12)Nc1ccc(N2CCOCC2)nc1` has an inhibition [12] of 3.76%.

`O=S(=O)(O)c1ccc(/N=N/C(=N\c2nc(-c3ccccc3)cs2)c2cc3ccccc3nc2Cl)cc1` gave an IC50 (MCF7 [13]) of 16000 nM and an IC50 (K562 [8]) of 13000 nM.

`C=C(NC(=O)C(=C)NC(=O)c1csc(C2=N[C@@H]3c4csc(n4)[C@H]4NC(=O)c5csc(n5)[C@H]([C@](C)(O)[C@@H](C)O)NC(=O)[C@H]5CSC(=N5)/C(=C/C)NC(=O)[C@H]([C@@H](C)O)NC(=O)c5csc(n5)[C@]3(CC2)NC(=O)[C@H](C)NC(=O)C(=C)NC(=O)[C@H](C)NC(=O)[C@H]([C@@H](C)CC)N[C@@H]2C=Cc3c([C@H](C)O)cc(nc3[C@H]2O)C(=O)O[C@@H]4C)n1)C(N)=O` [THIOSTREPTON] showed an IC50 (HepG2 [14]) of 710 nM, an IC50 [15] of 410 nM and an IC50 (MKN-74) of 4200 nM. It also gave an IC50 (SK-HEP1) of 740 nM, an IC50 (AGS) of 400 nM and an IC50 (SNU-638) of 300 nM. The IC50 (Hep 3B2) was 820 nM.

Work on `CCC[C@H](NS(=O)(=O)c1ccc(C)cc1)[C@]1(c2ccccc2Cl)N=C(SCC)SC1=O` yielded an IC50 (MDA-MB-231) of 38000 nM and an IC50 (Jurkat) of 17000 nM.

`O=C1N/C(=N/c2ccc(-c3nc4ccccc4o3)cc2)S/C1=C/c1ccc(Cl)cc1` showed an IC50 (MCF7 [16]) of 19 nM.

`C/C(=N\NC(=O)/C(C#N)=C1\SC=C(O)N1c1ccccc1)C1CC[C@@]2(C)[C@]3(C)CC=C4C[C@@H](O)CC[C@]4(C)[C@@]3(C)CC[C@]12C` (some centres not stated) gave a GI50 (NCI-H460 [17]) of 90 nM and a GI50 (MCF7 [18]) of 40 nM.

For `C=C(NC(=O)C(=C)NC(=O)c1csc(C2=N[C@@H]3c4csc(n4)[C@H]4NC(=O)c5csc(n5)C([C@](C)(O)[C@@H](C)O)NC(=O)[C@H]5CSC(=N5)/C(=C/C)NC(=O)C([C@@H](C)O)NC(=O)c5csc(n5)[C@]3(CC2)NC(=O)[C@H](C)NC(=O)C(=C)NC(=O)C(=C)NC(=O)[C@H](C(C)C)N[C@H]2C=Cc3c([C@H](C)O)cc(nc3[C@H]2O)C(=O)O[C@@H]4C)n1)C(N)=O` (some centres not stated), the IC50 (HepG2 [14]) was 1300 nM, the IC50 [15] was 750 nM and the IC50 (MKN-74) was 6210 nM. The IC50 (SK-HEP1) was 1600 nM, the IC50 (AGS) was 710 nM and the IC50 (SNU-638) was 910 nM. The IC50 (Hep 3B2) was 1900 nM.

Work on `Cc1cc(Cl)cc(C(=O)NC2CCCCC2)c1NC(=O)c1sc(-c2ccccc2Cl)nc1C(F)(F)F` yielded an Activity (A549 [19]) of 48%.

With `O=C1N/C(=N/c2ccc(-c3nc4ccccc4s3)cc2)S/C1=C/c1ccc([N+](=O)[O-])cc1` the IC50 (HepG2 [11]) was 36 nM and the IC50 (MCF7 [16]) was 48 nM.

Work on `O=C(NNc1nc(-c2ccc3ccccc3c2)cs1)N1N=C(c2ccccc2)CC1c1ccc(Cl)cc1` (configuration not stated) yielded an IC50 (MCF7 [20]) of 5000 nM and an IC50 (A549 [21]) of 5000 nM.

For `COc1cccc2c1C(=O)c1c(O)c3c(c(O)c1C2=O)C[C@@](O)(C(=O)CO)C[C@@H]3O[C@H]1C[C@H](N)[C@H](O)[C@H](C)O1` [DOXORUBICIN], the CC50 (HepG2 [14]) was 200 nM, the IC50 (HepG2 [5]) was 720 nM and the IC50 (PC-3) was 912 nM. For the same compound, the IC50 (HCT-116 [6]) was 180 nM, the IC50 (HepG2 [7]) was 11600 nM and the IC50 (K562 [8]) was 2300 nM. For the same compound, the IC50 (SMMC-7721) was 230 nM.

For `N#CC(C#N)=C1SC(n2nc(O)cc2N)=CN1c1ccccc1`, the GI50 (SF-268 [22]) was 10 nM.

`Cn1c(-c2csc(-c3c[nH]c4ncccc34)n2)cc2cc(Br)cnc21` gave a GI50 [4] of 810 nM.

For `O=C(NNc1nc(-c2ccc(Cl)cc2)cs1)N1N=C(c2ccccc2)CC1c1ccccc1` (configuration not stated), the IC50 (MCF7 [20]) was 5000 nM and the IC50 (A549 [21]) was 5000 nM.

With `C/C(=N\N=c1/scc(-c2ccc(Cl)cc2)n1-c1ccccc1)C1CC[C@@]2(C)[C@]3(C)CC=C4C[C@@H](O)CC[C@]4(C)[C@@]3(C)CC[C@]12C` (some centres not stated) the GI50 (NCI-H460 [23]) was 200 nM, the GI50 (MCF7 [24]) was 200 nM and the GI50 (SF-268 [25]) was 800 nM.
